From ChEMBL document CHEMBL3108683, “An Accessible Chiral Linker to Enhance Potency and Selectivity of Neuronal Nitric Oxide Synthase Inhibitors” (ACS Med Chem Lett, 2014)
pKi: −log10 of the molar value.

Legend:
[1] = target: Nitric oxide synthase 1 (Rattus norvegicus, UniProt P29476); assay: Inhibition of rat recombinant nNOS overexpressed in Escherichia coli using L-arginine as substrate assessed as formation of NO-hemoglobin complex measured up to 180 seconds by hemoglobin capture assay
[2] = target: T1, Nitric oxide synthase 3 (Bos taurus, UniProt P29473); assay: Inhibition of bovine recombinant eNOS overexpressed in Escherichia coli using L-arginine as substrate assessed as formation of NO-hemoglobin complex measured up to 180 seconds by hemoglobin capture assay
T1 sequence (P29473 whole entry): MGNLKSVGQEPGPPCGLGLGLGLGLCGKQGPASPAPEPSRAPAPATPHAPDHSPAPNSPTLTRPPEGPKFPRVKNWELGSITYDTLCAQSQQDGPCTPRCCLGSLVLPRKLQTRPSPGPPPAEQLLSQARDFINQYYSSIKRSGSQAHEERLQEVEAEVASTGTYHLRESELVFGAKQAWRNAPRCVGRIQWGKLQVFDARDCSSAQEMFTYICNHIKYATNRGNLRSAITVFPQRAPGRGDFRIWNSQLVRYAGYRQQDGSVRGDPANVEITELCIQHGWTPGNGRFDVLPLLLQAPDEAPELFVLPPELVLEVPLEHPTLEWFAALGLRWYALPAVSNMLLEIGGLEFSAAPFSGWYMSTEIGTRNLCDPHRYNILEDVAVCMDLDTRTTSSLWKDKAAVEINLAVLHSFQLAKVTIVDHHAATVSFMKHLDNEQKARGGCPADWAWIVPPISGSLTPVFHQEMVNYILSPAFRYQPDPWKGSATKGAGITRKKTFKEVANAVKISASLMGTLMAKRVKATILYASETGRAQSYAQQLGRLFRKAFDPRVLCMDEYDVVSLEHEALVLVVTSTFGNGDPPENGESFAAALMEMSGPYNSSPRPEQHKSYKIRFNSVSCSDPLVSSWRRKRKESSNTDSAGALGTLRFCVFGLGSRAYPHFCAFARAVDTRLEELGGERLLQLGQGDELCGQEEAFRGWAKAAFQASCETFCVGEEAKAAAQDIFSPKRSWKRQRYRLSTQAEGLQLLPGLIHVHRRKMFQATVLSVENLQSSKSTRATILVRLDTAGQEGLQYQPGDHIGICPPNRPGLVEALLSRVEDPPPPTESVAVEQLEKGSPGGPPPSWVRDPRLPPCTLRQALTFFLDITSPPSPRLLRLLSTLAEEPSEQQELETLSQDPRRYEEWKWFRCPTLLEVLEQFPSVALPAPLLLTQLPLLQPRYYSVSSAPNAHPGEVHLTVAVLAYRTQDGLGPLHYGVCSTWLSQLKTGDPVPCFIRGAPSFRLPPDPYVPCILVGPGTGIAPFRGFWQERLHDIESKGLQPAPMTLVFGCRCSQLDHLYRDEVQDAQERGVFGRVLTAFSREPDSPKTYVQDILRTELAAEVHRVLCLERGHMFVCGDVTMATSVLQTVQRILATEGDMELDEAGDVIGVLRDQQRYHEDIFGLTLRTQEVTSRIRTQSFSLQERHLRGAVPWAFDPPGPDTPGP

[3] = target: T2, Nitric oxide synthase, inducible (Mus musculus, UniProt P29477); assay: Inhibition of mouse recombinant iNOS overexpressed in Escherichia coli using L-arginine as substrate assessed as formation of NO-hemoglobin complex measured up to 180 seconds by hemoglobin capture assay
T2 sequence (P29477 whole entry): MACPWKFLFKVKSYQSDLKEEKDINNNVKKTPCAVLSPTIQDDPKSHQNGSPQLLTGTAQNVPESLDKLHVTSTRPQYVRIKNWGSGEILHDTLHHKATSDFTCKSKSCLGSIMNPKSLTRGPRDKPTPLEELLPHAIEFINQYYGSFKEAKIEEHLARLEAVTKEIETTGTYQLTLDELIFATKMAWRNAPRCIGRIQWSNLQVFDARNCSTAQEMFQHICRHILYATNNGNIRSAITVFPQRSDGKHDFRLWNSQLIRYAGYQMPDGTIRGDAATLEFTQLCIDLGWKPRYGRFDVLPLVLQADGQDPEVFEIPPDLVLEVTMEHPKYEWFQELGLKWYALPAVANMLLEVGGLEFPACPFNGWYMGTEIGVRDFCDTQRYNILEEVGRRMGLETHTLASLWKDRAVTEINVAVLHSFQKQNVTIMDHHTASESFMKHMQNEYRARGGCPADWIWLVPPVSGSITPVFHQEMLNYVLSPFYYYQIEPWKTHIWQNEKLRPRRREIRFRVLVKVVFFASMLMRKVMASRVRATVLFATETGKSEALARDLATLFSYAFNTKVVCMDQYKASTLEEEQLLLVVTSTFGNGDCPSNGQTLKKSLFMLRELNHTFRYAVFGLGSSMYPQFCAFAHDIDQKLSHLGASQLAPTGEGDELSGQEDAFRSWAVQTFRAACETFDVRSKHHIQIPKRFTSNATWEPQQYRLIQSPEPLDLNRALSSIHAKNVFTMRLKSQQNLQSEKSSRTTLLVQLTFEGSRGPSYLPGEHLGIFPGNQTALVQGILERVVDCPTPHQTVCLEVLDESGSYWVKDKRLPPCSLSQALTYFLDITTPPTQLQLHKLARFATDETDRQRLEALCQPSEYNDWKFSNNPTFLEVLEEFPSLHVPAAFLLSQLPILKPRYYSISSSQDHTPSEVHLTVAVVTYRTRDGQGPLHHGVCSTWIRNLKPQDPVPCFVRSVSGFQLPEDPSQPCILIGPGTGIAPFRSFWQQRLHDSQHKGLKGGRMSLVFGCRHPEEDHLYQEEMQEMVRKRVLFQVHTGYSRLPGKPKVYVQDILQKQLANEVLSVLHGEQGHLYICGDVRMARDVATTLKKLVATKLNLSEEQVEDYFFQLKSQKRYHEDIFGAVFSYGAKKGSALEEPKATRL

Nitric oxide synthase 1, sequence (P29476 whole entry): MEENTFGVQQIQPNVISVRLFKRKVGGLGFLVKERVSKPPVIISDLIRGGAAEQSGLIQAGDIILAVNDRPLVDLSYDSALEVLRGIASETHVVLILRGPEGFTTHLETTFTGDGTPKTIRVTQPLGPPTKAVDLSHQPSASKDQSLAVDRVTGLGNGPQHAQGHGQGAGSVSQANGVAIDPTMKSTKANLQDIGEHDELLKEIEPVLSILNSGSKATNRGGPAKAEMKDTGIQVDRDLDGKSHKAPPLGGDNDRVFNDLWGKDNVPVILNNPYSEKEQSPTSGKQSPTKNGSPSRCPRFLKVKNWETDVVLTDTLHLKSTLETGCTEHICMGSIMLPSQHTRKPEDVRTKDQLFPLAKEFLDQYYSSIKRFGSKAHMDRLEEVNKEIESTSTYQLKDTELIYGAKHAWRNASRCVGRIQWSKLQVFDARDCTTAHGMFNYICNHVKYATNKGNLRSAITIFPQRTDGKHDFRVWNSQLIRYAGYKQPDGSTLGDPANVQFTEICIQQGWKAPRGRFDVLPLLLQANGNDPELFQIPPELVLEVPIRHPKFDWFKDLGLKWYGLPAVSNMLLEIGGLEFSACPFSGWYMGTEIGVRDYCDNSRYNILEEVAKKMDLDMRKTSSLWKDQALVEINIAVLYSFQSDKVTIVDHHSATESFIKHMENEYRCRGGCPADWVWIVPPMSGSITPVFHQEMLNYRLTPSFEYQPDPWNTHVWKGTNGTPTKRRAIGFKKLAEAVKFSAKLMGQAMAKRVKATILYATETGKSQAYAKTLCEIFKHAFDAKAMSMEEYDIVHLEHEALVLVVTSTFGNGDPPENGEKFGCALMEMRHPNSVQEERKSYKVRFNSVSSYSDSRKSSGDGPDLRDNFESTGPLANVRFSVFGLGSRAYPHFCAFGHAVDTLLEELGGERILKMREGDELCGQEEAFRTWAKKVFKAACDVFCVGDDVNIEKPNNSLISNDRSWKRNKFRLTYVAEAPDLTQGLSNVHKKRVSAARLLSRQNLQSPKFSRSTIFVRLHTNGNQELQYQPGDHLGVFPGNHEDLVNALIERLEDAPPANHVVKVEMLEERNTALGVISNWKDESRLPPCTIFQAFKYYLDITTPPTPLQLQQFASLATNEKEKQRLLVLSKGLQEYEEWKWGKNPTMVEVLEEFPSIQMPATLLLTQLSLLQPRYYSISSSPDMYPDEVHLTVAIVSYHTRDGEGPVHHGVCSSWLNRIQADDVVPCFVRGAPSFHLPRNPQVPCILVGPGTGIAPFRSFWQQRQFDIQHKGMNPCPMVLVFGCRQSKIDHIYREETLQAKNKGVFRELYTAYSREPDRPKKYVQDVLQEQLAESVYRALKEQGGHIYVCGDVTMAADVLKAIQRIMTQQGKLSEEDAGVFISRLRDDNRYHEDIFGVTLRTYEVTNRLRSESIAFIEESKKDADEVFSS

- pKi [1]: 8.01
- pKi [2]: 5.17
- pKi [3]: 5.54
Compound: Cc1cc(N)nc(COC[C@H]2C[C@H](OCc3cc(C)cc(N)n3)CN2)c1
